In article PMC6352943, “Novel pyrazolo[3,4-d]pyrimidines: design, synthesis, anticancer activity, dual EGFR/ErbB2 receptor tyrosine kinases inhibitory activity, effects on cell cycle profile and caspase-3-mediated apoptosis” (Journal of Enzyme Inhibition and Medicinal Chemistry, 2019):

How the values were obtained:
[1] = test system: BT-549; assay: NCI 60 cell line single dose screen (SRB); format: cell-based; conditions: Homo sapiens; BT-549 (breast cancer), single dose 10^−5 M, 48 h; read-out: Growth inhibition percentage
Summary of the method: (§1)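 Cells were plated and grown 24 h at 37 °C, 5% CO2 before compound addition from DMSO stock, then exposed 48 h. Adherent cells were fixed with cold TCA (final 10%) and suspension cells with 16% TCA. SRB-stained protein was read at 515 nm and percent growth was calculated against time-zero and untreated plates.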

[2] = test system: HOP-62; assay: NCI 60 cell line single dose screen (SRB); format: cell-based; conditions: Homo sapiens; HOP-62 (non-small cell lung cancer), single dose 10^−5 M, 48 h; read-out: Growth inhibition percentage
Summary of the method: as §1

[3] = test system: HOP-92; assay: NCI 60 cell line single dose screen (SRB); format: cell-based; conditions: Homo sapiens; HOP-92 (non-small cell lung cancer), single dose 10^−5 M, 48 h; read-out: Growth inhibition percentage
Summary of the method: as §1

[4] = test system: HT29; assay: NCI 60 cell line single dose screen (SRB); format: cell-based; conditions: Homo sapiens, HT-29; HT29 (colon cancer), single dose 10^−5 M, 48 h; read-out: Growth inhibition percentage
Summary of the method: as §1

[5] = test system: K-562; assay: NCI 60 cell line single dose screen (SRB); format: cell-based; conditions: Homo sapiens, K562; K-562 (leukemia), single dose 10^−5 M, 48 h; read-out: Growth inhibition percentage
Summary of the method: as §1

[6] = test system: LOX IMVI; assay: NCI 60 cell line single dose screen (SRB); format: cell-based; conditions: Homo sapiens; LOX IMVI (melanoma), single dose 10^−5 M, 48 h; read-out: Growth inhibition percentage
Summary of the method: as §1

[7] = test system: MDA-MB-231/ATCC; assay: NCI 60 cell line single dose screen (SRB); format: cell-based; conditions: Homo sapiens; MDA-MB-231/ATCC (breast cancer), single dose 10^−5 M, 48 h; read-out: Growth inhibition percentage
Summary of the method: as §1

[8] = test system: MOLT-4; assay: NCI 60 cell line single dose screen (SRB); format: cell-based; conditions: Homo sapiens; MOLT-4 (leukemia), single dose 10^−5 M, 48 h; read-out: Growth inhibition percentage
Summary of the method: as §1

[9] = test system: NCI-H522; assay: NCI 60 cell line single dose screen (SRB); format: cell-based; conditions: Homo sapiens; NCI-H522 (non-small cell lung cancer), single dose 10^−5 M, 48 h; read-out: Growth inhibition percentage
Summary of the method: as §1

[10] = test system: RXF 393; assay: NCI 60 cell line single dose screen (SRB); format: cell-based; conditions: Homo sapiens; RXF 393 (renal cancer), single dose 10^−5 M, 48 h; read-out: Growth inhibition percentage
Summary of the method: as §1

[11] = test system: SF-593; assay: NCI 60 cell line single dose screen (SRB); format: cell-based; conditions: Homo sapiens, SF-593 (CNS cancer), single dose 10^−5 M, 48 h, read-out: Growth inhibition percentage
Summary of the method: as §1

[12] = test system: SR; assay: NCI 60 cell line single dose screen (SRB); format: cell-based; conditions: Homo sapiens; SR (leukemia), single dose 10^−5 M, 48 h; read-out: Growth inhibition percentage
Summary of the method: as §1

[13] = test system: SW-620; assay: NCI 60 cell line single dose screen (SRB); format: cell-based; conditions: Homo sapiens; SW-620 (colon cancer), single dose 10^−5 M, 48 h; read-out: Growth inhibition percentage
Summary of the method: as §1

[14] = test system: T-47D; assay: NCI 60 cell line single dose screen (SRB); format: cell-based; conditions: Homo sapiens, T47D; T-47D (breast cancer), single dose 10^−5 M, 48 h; read-out: Growth inhibition percentage
Summary of the method: as §1

[15] = test system: TK-10; assay: NCI 60 cell line single dose screen (SRB); format: cell-based; conditions: Homo sapiens; TK-10 (renal cancer), single dose 10^−5 M, 48 h; read-out: Growth inhibition percentage
Summary of the method: as §1

[16] = test system: UACC-257; assay: NCI 60 cell line single dose screen (SRB); format: cell-based; conditions: Homo sapiens; UACC-257 (melanoma), single dose 10^−5 M, 48 h; read-out: Growth inhibition percentage
Summary of the method: as §1

SMILES | inhibition at 10 µM [1] | inhibition at 10 µM [2] | inhibition at 10 µM [3] | inhibition at 10 µM [4] | inhibition at 10 µM [5] | inhibition at 10 µM [6] | inhibition at 10 µM [7] | inhibition at 10 µM [8] | inhibition at 10 µM [9] | inhibition at 10 µM [10] | inhibition at 10 µM [11] | inhibition at 10 µM [12] | inhibition at 10 µM [13] | inhibition at 10 µM [14] | inhibition at 10 µM [15] | inhibition at 10 µM [16] | melting point
COc1cc(C=NNc2ncnc3c2c(C)nn3-c2ccc(F)cc2)cc(OC)c1OC [Compound 10c, 1–(4-Fluorophenyl)-3-methyl-4–(2-(3,4,5-trimethoxybenzylidene)-hydrazinyl)-1H-pyrazolo[3,4-d]pyrimidine] | -1.06% | 0.38% | 40.4% | 8.83% | -3.02% | 9.33% | 16.5% | 7.03% | 7.26% | 3.39% | 13.2% | 13.7% | -11.7% | 16.8% | -36.3% | 0.35% | 222 to 224 °C
Cc1nn(-c2ccc(F)cc2)c2ncnc(N3CCOCC3)c12 [Compound 8a, 1–(4-Fluorophenyl)-3-methyl-4-morpholino-1H-pyrazolo[3,4-d]pyrimidine] | 3.96% | -13.6% | 9.27% | 7.56% | -3.68% | -2.33% | -10.4% | 5.79% | 8.03% | -15.7% | -8.46% | 1.18% | -4.76% | -22.2% | 9.75% | -5.9% | 
Cc1nn(-c2ccc(F)cc2)c2nc(N)nc(N)c12 [Compound 5, 1–(4-Fluorophenyl)-3-methyl-1H-pyrazolo[3,4-d]pyrimidine-4,6-diamine] | -17.4% | -8.35% | 1.64% | -6.5% | -11.9% | 2.19% | -9.11% | -0.48% | 2.08% | -13% | 2.81% | -1.68% | -16.8% | -2.65% | -13% | -18.7% | > 300 °C
Cc1nn(-c2ccc(F)cc2)c2nc[nH]c(=O)c12 [Compound 3, 1–(4-Fluorophenyl)-3-methyl-1H-pyrazolo[3,4-d]pyrimidin-4(5H)-one] | -3.59% | -6.53% | 10.3% | 3.83% | 1.69% | 2.19% | -9.78% | 3.3% | 4.92% | -11.4% | -0.99% | -1.58% | -12.3% | 0.23% | -3.17% | -8.15% | > 300 °C
Cc1nn(-c2ccc(F)cc2)c2ncnc(N)c12 [Compound 4, 1–(4-Fluorophenyl)-3-methyl-1H-pyrazolo[3,4-d]pyrimidin-4-amine] | 9.79% | -8.24% | -1.54% | 3.34% | 1.98% | 1.75% | -10.8% | 0.58% | 6.49% | -17.3% | -1.06% | 3.35% | -18.7% | 4.18% | -4.14% | -14.2% | > 300 °C
Cc1ccc(Nc2ncnc3c2c(C)nn3-c2ccc(F)cc2)cc1 [Compound 7c, 1–(4-Fluorophenyl)-3-methyl-N-(p-tolyl)-1H-pyrazolo[3,4-d]-pyrimidin-4-amine] | -8.83% | -14.5% | 3.79% | 11.7% | 0.26% | -0.99% | -2.67% | 1.83% | 11% | -13.7% | -1.94% | 6.02% | -8.11% | 14.6% | 9.04% | -7.62% | 
